Values quoted from earlier work, collected in patent US12702587B2, “Ophthalmic device” (aVISI Ltd., priority 2020, dated 2026).
Structures can show the parent of a compound that is named as a salt.

Conditions: from chitosan nanoparticles; phosphate buffer saline of pH 7.4; in vitro

In the case of CC(C)(C)NC[C@H](O)COc1nsnc1N1CCOCC1 [timolol maleate], the “release of timolol maleate (duration of slow release)” value is listed as “up to 24 hours”.
